Tested on: soybean Asian rust—Phakopsora pachyrhizi (PHAKPA)
Experiment: Efficacy on soybean rust: greenhouse soybean plants sprayed, then inoculated with spore suspension
Assay type: in vivo, Phakopsora pachyrhizi on soybean plants
Conditions: pre-inoculation; for PHAKPA Control % 14 DAA: 14 days after application; for PHAKPA Control % 12 DAA: 12 days after application
Procedure: Soybean plants were inoculated with an aqueous spore suspension of the fungal pathogen (soybean Asian rust—Phakopsora pachyrhizi) at 2 h and 24 h post compound application. Additionally, infected untreated plants with sporulating lesions were placed among the test pots throughout the duration of the tests. The soybean plants were propagated from seed in a greenhouse, at a density of 3 seeds per pot containing a sandy loam. The plants were sprayed at growth stage V2 to V3 (2-3 trifoliates developed) and subsequently inoculated with the pathogen at the time intervals indicated above. Following inoculation, the plants were maintained under conditions of high humidity and at 26° C. to support spore germination and host leaf colonization. Assessments were made 12-15 days after inoculation. Aliquots of a 10% SC formulation of Compound I were diluted into water to achieve spray solutions containing 25, 100 and 400 ppm of the active ingredient. The spray solutions were also supplemented with either Trycol 5941 or one of several alternative adjuvant chemistries. Treatment solutions were sprayed to run-off using a hand held sprayer.

[1] = 400 ppm Compound I + Trycol 5941 0.2 % v/v

COc1ccnc(C(=O)N[C@H]2COC(=O)[C@H](Cc3ccccc3)[C@@H](OC(=O)C(C)C)[C@H](C)OC2=O)c1OCOC(=O)C(C)C [Compound I]
PHAKPA Control % 14 DAA (25 ppm Compound I + Trycol 5941 0.2 % v/v): D (1-25)
PHAKPA Control % 14 DAA (100 ppm Compound I + Trycol 5941 0.2 % v/v): C (26-50)
PHAKPA Control % 12 DAA (400 ppm Compound I + Agbem 0.2 % v/v): B (51-75)
PHAKPA Control % 12 DAA (400 ppm Compound I + Agral 0.2 % v/v): B (51-75)
PHAKPA Control % 12 DAA (400 ppm Compound I + Aterbane 0.2 % v/v): B (51-75)
PHAKPA Control % 12 DAA (400 ppm Compound I + Joint 0.2 % v/v): A (76-100)
PHAKPA Control % 12 DAA (400 ppm Compound I + Nimbus 0.2 % v/v): A (76-100)
PHAKPA Control % 12 DAA [1]: B (51-75)
PHAKPA Control % 14 DAA [1]: A (76-100)
PHAKPA Control % 12 DAA (400 ppm Compound I + Vegetable Oil 0.2 % v/v): A (76-100)
